According to patent publication US12600734B2, “Photosensitizing dye” (The University of Tokyo, priority 2020, dated 2026):

Tests used:
[1] = protoporphyrin IX generated as a result of metabolizing 5-ALA in the cytoplasm; cited from earlier work
[2] = Singlet oxygen quantum yield (DPBF, light irradiation); assay type: physicochemical
Description: (§1) The absorption maximum of all of the substances was measured in DMSO.
The singlet oxygen quantum yield of PS1 was measured. […] This value was higher than the values of conventional photosensitizers, and thus, the usefulness of PS1 for photo dynamic therapy could be expected.

[3] = test system: EGFR-overexpressing A431 cells; assay: Immunotoxin plus photochemical internalization (PCI), cell viability (CCK-8); assay type: cell-based; conditions: A431, immunotoxin + PCI with the named photosensitizer + NIR
Description: After that, a new medium was added, and irradiation (6.1 mW/cm^2 for 60 min, 22 J/cm^2) with a near infrared light (700 to 1100 nm) was then carried out. Forty-eight hours after the irradiation, CCK-8 was added to the resultant, and the absorption at a wavelength of 450 nm was then measured using a plate reader, so that cell viability was measured (FIG. 8).
Using these photosensitizers, a cell experiment involving the combined use of addition of the immunotoxin and PCI was carried out.

[4] = Absorption spectrum of PS1 and common photosensitizers in DMSO; assay type: physicochemical
Description: as §1
The absorption spectrum of the synthesized PS1 was measured. […] In addition, absorption spectra were measured at different concentrations, and the absorption at a wavelength of 775 nm was then plotted to obtain a molar adsorption coefficient. As a result, the molar adsorption coefficient was 41000 (M^−1 cm^−1) (FIG. 2).

NCC(=O)CCC(=O)O [5-ALA, 5-aminolevulinic acid]
absorption maximum (λab) [1]: 405 nm

CC1(C)C(/C=C/C=C/C=C/C=C2\N(CCCCS(=O)(=O)O)c3ccc4ccccc4c3C2(C)C)=[N+](CCCCS(=O)(=O)[O-])c2ccc3ccccc3c21 [Indocyanine green]
singlet oxygen quantum yield ([2]; in a buffer aqueous solution (pH 7.4)): 0.12 | photosensitization ability under near infrared light irradiation (reason given for no viability reduction) [3]: could not release a sufficient amount of singlet oxygen | absorption maximum (region) [4]: in a near infrared region

[Zn+2].c1ccc2c(c1)-c1nc-2nc2[n-]c(nc3nc([n-]c4nc(n1)-c1ccccc1-4)-c1ccccc1-3)c1ccccc21 [Zinc phthalocyanine]
singlet oxygen quantum yield ([2]; in DMSO): high | photosensitization ability under near infrared light irradiation (reason given for no viability reduction) [3]: photosensitization could not be performed | absorption maximum (region) [4]: in a visible light region
